# Tests used:
# [1] = target: T1, SUMO (Homo sapiens, UniProt Q9UBT2); assay: SUMO activity (Table I, biological activities); format: biochemical; set-up: key: + (less active); ++ (active); +++ (most active)
# T1 sequence (Q9UBT2 1-640): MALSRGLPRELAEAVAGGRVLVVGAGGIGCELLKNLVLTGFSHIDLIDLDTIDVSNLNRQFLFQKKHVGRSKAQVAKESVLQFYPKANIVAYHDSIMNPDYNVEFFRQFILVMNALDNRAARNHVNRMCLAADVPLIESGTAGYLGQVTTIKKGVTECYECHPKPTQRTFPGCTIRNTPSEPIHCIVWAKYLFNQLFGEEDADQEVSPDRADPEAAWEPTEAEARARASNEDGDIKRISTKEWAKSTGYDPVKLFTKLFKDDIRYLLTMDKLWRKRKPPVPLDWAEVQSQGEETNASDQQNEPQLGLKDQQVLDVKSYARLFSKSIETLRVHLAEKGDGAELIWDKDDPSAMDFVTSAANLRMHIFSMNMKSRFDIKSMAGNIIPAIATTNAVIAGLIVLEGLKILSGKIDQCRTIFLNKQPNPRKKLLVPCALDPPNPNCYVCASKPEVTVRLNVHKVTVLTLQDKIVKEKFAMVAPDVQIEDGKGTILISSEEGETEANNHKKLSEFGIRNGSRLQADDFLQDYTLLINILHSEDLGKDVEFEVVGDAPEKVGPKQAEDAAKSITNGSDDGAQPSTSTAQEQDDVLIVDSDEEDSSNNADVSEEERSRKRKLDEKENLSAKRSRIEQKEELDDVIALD
# T1 sequence (Q9UBE0 1-346 partner): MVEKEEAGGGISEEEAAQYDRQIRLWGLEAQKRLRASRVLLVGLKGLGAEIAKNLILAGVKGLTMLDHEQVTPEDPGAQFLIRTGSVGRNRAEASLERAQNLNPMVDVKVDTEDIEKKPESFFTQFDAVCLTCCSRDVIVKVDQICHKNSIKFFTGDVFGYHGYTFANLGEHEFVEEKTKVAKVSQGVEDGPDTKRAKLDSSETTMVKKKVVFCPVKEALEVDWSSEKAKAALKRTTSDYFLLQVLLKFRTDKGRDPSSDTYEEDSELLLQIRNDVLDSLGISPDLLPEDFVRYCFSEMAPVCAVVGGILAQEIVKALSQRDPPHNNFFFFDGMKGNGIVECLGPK
# [2] = test system: c-Myc; assay: c-Myc activity (Table I, biological activities); set-up: key: + (less active); ++ (active); +++ (most active)
SMILES,SUMO [1],c-Myc [2]
COC(=O)C1=C(C(=O)OC)C2(C(Cc3ccccc3)Nc3c(F)cccc3F)C=CC1O2 (stereo not shown) [Compound 169],++,+
COC(=O)C1=C(C(=O)NC2CCN(C(=O)c3c(C)cccc3C)CC2)C2C=CC1(C(Cc1ccccc1)Nc1ccccc1)O2 (stereo not shown) [Compound 381],++,+
COC(=O)C1=C(C(=O)NC2CCN(Cc3ccccc3)CC2)C2CCC1(C(Cc1ccccc1)Nc1ccccc1)O2 (stereo not shown) [Compound 369],+,+
COC(=O)C1=C(C(=O)OC)C2(C(Cc3ccccc3)Nc3cc(F)cc(F)c3)C=CC1O2 (stereo not shown) [Compound 167],++,+
C=CCCC(Nc1ccccc1)C12C=CC(O1)C(C(N)=O)=C2C(=O)OC (stereo not shown) [Compound 177],+,+
CCOC(=O)C1=C(C(=O)NC2CCN(C)CC2)C2C=CC1(C(Cc1ccccc1)Nc1ccc(F)cc1F)O2 (stereo not shown) [Compound 329],+++,++
CCOc1cccc(NC(Cc2ccccc2)C23C=CC(O2)C(C(=O)NC2CCN(C)C2)=C3C(=O)OC)c1 (stereo not shown) [Compound 248],+++,++
COC(=O)C1=C(C(=O)Nc2ccc(OC)nc2)C2C=CC1(C(Cc1ccccc1)Nc1cc(F)cc(Cl)c1)O2 (stereo not shown) [Compound 218],+++,+
CCCCC(Nc1cc(F)cc(F)c1)C12C=CC(O1)C(C(=O)OC)=C2C(=O)OC (stereo not shown) [Compound 212],+++,+
COC(=O)C1=C(C(=O)NC2CCN(C)C2)C2C=CC1(C(Cc1ccccc1)Nc1cc(F)cc(F)c1)O2 (stereo not shown) [Compound 256],++,+
CNC(=O)C1=C(C(=O)OC)C2(C(Cc3ccccc3)Nc3cc(F)cc(F)c3)C=CC1O2 (stereo not shown) [Compound 208],++,+
COC(=O)C1=C(C(=O)Nc2ccc(C)c(F)c2)C2C=CC1(C(Cc1ccccc1)Nc1cc(F)cc(Cl)c1)O2 (stereo not shown) [Compound 348],++,+
COC(=O)C1=C(C(=O)Nc2ccccc2C)C2C=CC1(C(Cc1ccccc1)Nc1ccccc1)O2 (stereo not shown) [Compound 360],++,+
COC(=O)C1=C(C(=O)OC)C2(C(Nc3ccccc3)c3ccccc3)C=CC1O2 (stereo not shown) [Compound 165],++,+
COC(=O)CNC(=O)C1=C(C(=O)OC)C2(C(Cc3ccccc3)Nc3cc(F)cc(F)c3)C=CC1O2 (stereo not shown) [Compound 245],+++,++
COC(=O)C1=C(C(=O)NNc2ccccc2)C2C=CC1(C(Cc1ccccc1)Nc1ccccc1)O2 (stereo not shown) [Compound 200],++,++
COC(=O)C1=C(C(N)=O)C2C=CC1(C(Nc1ccccc1)C1CCC1)O2 (stereo not shown) [Compound 179],+,+
COC(=O)C1=C(C(=O)NC2CCN(C(=O)Cc3ccccc3)CC2)C2C=CC1(C(Cc1ccccc1)Nc1ccccc1)O2 (stereo not shown) [Compound 387],++,+
CCOC(=O)C1=C(C(=O)OCC)C2(C(Cc3ccccc3)Nc3ccccc3)C=CC1(C)O2 (stereo not shown) [Compound 260],++,+
CCOC(=O)C1=C(C(=O)NC2CCN(C)CC2)C2CCC1(C(Cc1ccccc1)Nc1ccc(F)cc1F)O2 (stereo not shown) [Compound 345],+,+
COC(=O)C1=C(C(=O)NC2CCN(C)CC2)C2C=CC1(C(Cc1ccccc1)Nc1c(F)cccc1F)O2 (stereo not shown) [Compound 258],++,+
COC(=O)C1=C(C(=O)NNc2ccccc2)C2C=CC1(C(Cc1ccccc1)Nc1cc(F)cc(F)c1)O2 (stereo not shown) [Compound 205],++,++
COC(=O)C1=C(C(=O)NNc2ccc(F)c(F)c2)C2(C(Cc3ccccc3)Nc3cc(F)cc(F)c3)C=CC1O2 (stereo not shown) [Compound 315],++,+
COC(=O)C1=C(C(=O)OC)C2(C(Cc3ccccc3)Nc3ccc(F)cc3F)C=CC1O2 (stereo not shown) [Compound 171],++,++
COC(=O)C1=C(C(=O)N(C)CCN(C)C)C2C=CC1(C(Cc1ccccc1)Nc1ccccc1)O2 (stereo not shown) [Compound 388],+,+

# The next lines start with results.
SUMO [1],SMILES,c-Myc [2]
+++,COC(=O)C1=C(C(=O)NCCN2CCCC2)C2C=CC1(C(Cc1ccccc1)Nc1ccc(F)cc1)O2 (stereo not shown) [Compound 443],++
++,COC(=O)C1=C(C(=O)NC2CCN(C(=O)c3ccccn3)CC2)C2C=CC1(C(Cc1ccccc1)Nc1ccccc1)O2 (stereo not shown) [Compound 391],+
++,CCOC(=O)C1=C(C(=O)Nc2ccc(Cl)cc2)C2C=CC1(C(Nc1ccccc1)c1ccc(CN3CCOCC3)cc1)O2 (stereo not shown) [Compound 606],+
++,CCOC(=O)C1=C(C(=O)NCCN(CC)CC)C2C=CC1(C(Cc1ccccc1)Nc1c(F)cccc1F)O2 (stereo not shown) [Compound 434],++
++,COC(=O)C1=C(C(=O)NCCN(C)C)C2C=CC1(C(Cc1ccccc1)Nc1ccc(F)cc1F)O2 (stereo not shown) [Compound 409],++
+,CCOC(=O)C1=C(C(=O)Nc2ccc(C)c(F)c2)C2C=CC1(C(Nc1ccc(C)cc1)c1ccc(CN3CCOCC3)cc1)O2 (stereo not shown) [Compound 613],+
+,CCOC(=O)C1=C(C(=O)Nc2ccc(OC)cc2OC)C2C=CC1(C(Nc1ccccc1)c1ccc(CN3CCOCC3)cc1)O2 (stereo not shown) [Compound 610],+
+++,COC(=O)C1=C(C(=O)NCCN2CCCC2)C2C=CC1(C(Cc1ccc(C(F)(F)F)cc1)Nc1ccccc1)O2 (stereo not shown) [Compound 440],++
++,COC(=O)C1=C(C(=O)Nc2ccc(OCCN(C)C)c(F)c2)C2C=CC1(C(Cc1ccccc1)Nc1ccccc1)O2 (stereo not shown) [Compound 500],+
++,CCN(CC)CCNC(=O)C1=C(C(=O)OC)C2(C(Cc3ccccc3)Nc3cccc(F)c3)C=CC1O2 (stereo not shown) [Compound 421],++
++,CCN(CC)CCNC(=O)C1=C(C(=O)OC)C2(C(Cc3ccccc3)Nc3ccc(F)cc3F)C=CC1O2 (stereo not shown) [Compound 410],+
+++,COC(=O)C1=C(C(=O)Nc2ccc(OCCN3CCOCC3)cc2)C2C=CC1(C(Cc1ccccc1)Nc1ccccc1)O2 (stereo not shown) [Compound 502],+
+,CCOC(=O)C1=C(C(=O)Nc2ccc(C)c(F)c2)C2C=CC1(C(Nc1ccccc1)c1ccc(CN3CCOCC3)cc1)O2 (stereo not shown) [Compound 558],+
+,CCOC(=O)C1=C(C(=O)Nc2ccc(C)c(F)c2)C2C=CC1(C(Nc1ccc(C#N)cc1)c1ccc(CN3CCOCC3)cc1)O2 (stereo not shown) [Compound 612],+
+,CCOC(=O)C1=C(C(=O)Nc2ccc(Oc3ccccc3)cc2)C2C=CC1(C(Nc1ccccc1)c1ccc(CN3CCOCC3)cc1)O2 (stereo not shown) [Compound 569],+
++,C#Cc1ccc(NC(=O)C2=C(C(=O)OCC)C3(C(Nc4ccccc4)c4ccc(CN5CCOCC5)cc4)C=CC2O3)cc1 (stereo not shown) [Compound 577],++
++,CCOC(=O)C1=C(C(=O)Nc2ccc(OC)cc2)C2C=CC1(C(Nc1ccccc1)c1ccc(CN3CCOCC3)cc1)O2 (stereo not shown) [Compound 567],+
++,COC(=O)C1=C(C(=O)NCCNS(=O)(=O)c2ccccc2)C2C=CC1(C(Cc1ccccc1)Nc1ccccc1)O2 (stereo not shown) [Compound 394],+
+,CCOC(=O)C1=C(C(=O)N(C)C)C2C=CC1(C(Cc1ccccc1)Nc1ccccc1)O2 (stereo not shown) [Compound 593],+
++,CCN(CC)CCNC(=O)C1=C(C(=O)OC)C2(C(Cc3ccc(C)cc3)Nc3cc(F)cc(F)c3)C=CC1O2 (stereo not shown) [Compound 430],++
+++,COC(=O)C1=C(C(=O)NCCN2CCCC2)C2C=CC1(C(Cc1ccccc1)Nc1ccccc1)O2 (stereo not shown) [Compound 406],++
+++,CCN(CC)CCNC(=O)C1=C(C(=O)OC)C2(C(Cc3cccc(F)c3)Nc3cc(F)cc(F)c3)C=CC1O2 (stereo not shown) [Compound 436],++
+,CC(=O)C1=CC2(C(Cc3ccccc3)Nc3ccccc3)C=CC1(C)O2 (stereo not shown) [Compound 527],+
+++,COC(=O)C1=C(C(=O)NC2CN(C)C2)C2C=CC1(C(Cc1ccccc1)Nc1ccccc1)O2 (stereo not shown) [Compound 492],+
++,CCN(CC)CCNC(=O)C1=C(C(=O)OC)C2(C(Cc3ccccc3)Nc3cc(F)cc(F)c3)C=CC1O2 (stereo not shown) [Compound 400],++
